Values after ≈ are worked out from the molar mass of the structure shown.
Tested on: Histophilus somni
Assay: minimum inhibitory concentration (MIC)
Protocol: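 Broth microdilution MIC (Sensititre BOPO7F bovine plate, CLSI methods) of 19 antimicrobials against field isolates of P. multocida, M. haemolytica, H. somni (deep nasopharyngeal swabs) and E. coli, Enterococcus spp. (rectal swabs) from weaned dairy heifers. Incubation 16-24 h at 35 C. MIC is the lowest concentration preventing visible growth. Values with <= or > lie at the tested range limits. Trimethoprim-sulfamethoxazole is given as the trimethoprim component of a 1:19 mixture.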

CC[C@H]1OC(=O)C[C@@H](O)[C@H](C)[C@@H](O[C@@H]2O[C@H](C)[C@@H](O)[C@H](N(C)C)[C@H]2O)[C@@H](CCN2CCCCC2)C[C@@H](C)C(=O)/C=C/C(C)=C/[C@@H]1CN1CCCCC1 [Tildipirosin]
Conditions	minimum inhibitory concentration [µg/mL]
isolate (source animal id): 3	≤ 1
isolate (source animal id): 4	2 (≈ 2.72 µM)
isolate (source animal id): 7	≤ 1
isolate (source animal id): 14	≤ 1
isolate (source animal id): 15	4 (≈ 5.45 µM)
isolate (source animal id): 17	≤ 1
isolate (source animal id): 18	≤ 1
isolate (source animal id): 20	≤ 1
isolate (source animal id): 23	2 (≈ 2.72 µM)
isolate (source animal id): 45	4 (≈ 5.45 µM)
isolate (source animal id): 53	4 (≈ 5.45 µM)
isolate (source animal id): 83	2 (≈ 2.72 µM)
isolate (source animal id): 88	2 (≈ 2.72 µM)
isolate (source animal id): 92	4 (≈ 5.45 µM)
isolate (source animal id): 93	≤ 1
isolate (source animal id): 99	2 (≈ 2.72 µM)
isolate (source animal id): 100	4 (≈ 5.45 µM)
isolate (source animal id): 105	≤ 1
isolate (source animal id): 107	2 (≈ 2.72 µM)
isolate (source animal id): 108	4 (≈ 5.45 µM)
isolate (source animal id): 109	4 (≈ 5.45 µM)
isolate (source animal id): 110	4 (≈ 5.45 µM)
isolate (source animal id): 117	≤ 1
isolate (source animal id): 121	≤ 1
isolate (source animal id): 123	2 (≈ 2.72 µM)
isolate (source animal id): 124	2 (≈ 2.72 µM)
isolate (source animal id): 127	≤ 1
isolate (source animal id): 128	2 (≈ 2.72 µM)
isolate (source animal id): 130	2 (≈ 2.72 µM)
isolate (source animal id): 132	4 (≈ 5.45 µM)
isolate (source animal id): 135	2 (≈ 2.72 µM)
isolate (source animal id): 140	2 (≈ 2.72 µM)
isolate (source animal id): 141	2 (≈ 2.72 µM)
isolate (source animal id): 142	> 16
isolate (source animal id): 144	4 (≈ 5.45 µM)
isolate (source animal id): 146	4 (≈ 5.45 µM)
isolate (source animal id): 147	> 16
isolate (source animal id): 151	2 (≈ 2.72 µM)
isolate (source animal id): 153	8 (≈ 10.9 µM)
isolate (source animal id): 154	> 16
isolate (source animal id): 156	> 16
isolate (source animal id): 157	8 (≈ 10.9 µM)
isolate (source animal id): 176	2 (≈ 2.72 µM)
isolate (source animal id): 183	2 (≈ 2.72 µM)
isolate (source animal id): 186	4 (≈ 5.45 µM)
isolate (source animal id): 196	4 (≈ 5.45 µM)
isolate (source animal id): 198	4 (≈ 5.45 µM)
isolate (source animal id): 200	8 (≈ 10.9 µM)
isolate (source animal id): 206	8 (≈ 10.9 µM)
isolate (source animal id): 208	8 (≈ 10.9 µM)
isolate (source animal id): 210	2 (≈ 2.72 µM)
isolate (source animal id): 212	≤ 1
isolate (source animal id): 215	4 (≈ 5.45 µM)
isolate (source animal id): 216	8 (≈ 10.9 µM)
isolate (source animal id): 218	4 (≈ 5.45 µM)
isolate (source animal id): 219	8 (≈ 10.9 µM)
isolate (source animal id): 224	8 (≈ 10.9 µM)
isolate (source animal id): 228	4 (≈ 5.45 µM)
isolate (source animal id): 230	≤ 1
isolate (source animal id): 233	≤ 1
isolate (source animal id): 238	≤ 1
isolate (source animal id): 239	2 (≈ 2.72 µM)
isolate (source animal id): 241	2 (≈ 2.72 µM)
isolate (source animal id): 242	2 (≈ 2.72 µM)
isolate (source animal id): 243	≤ 1
isolate (source animal id): 245	≤ 1
isolate (source animal id): 246	4 (≈ 5.45 µM)
isolate (source animal id): 247	2 (≈ 2.72 µM)
isolate (source animal id): 248	≤ 1
isolate (source animal id): 250	2 (≈ 2.72 µM)
isolate (source animal id): 251	4 (≈ 5.45 µM)
isolate (source animal id): 252	4 (≈ 5.45 µM)
isolate (source animal id): 254	4 (≈ 5.45 µM)
isolate (source animal id): 258	2 (≈ 2.72 µM)
isolate (source animal id): 259	2 (≈ 2.72 µM)
isolate (source animal id): 262	≤ 1
isolate (source animal id): 264	≤ 1
isolate (source animal id): 265	2 (≈ 2.72 µM)
isolate (source animal id): 266	2 (≈ 2.72 µM)
isolate (source animal id): 267	2 (≈ 2.72 µM)
isolate (source animal id): 269	2 (≈ 2.72 µM)
isolate (source animal id): 271	2 (≈ 2.72 µM)
isolate (source animal id): 272	≤ 1
isolate (source animal id): 274	≤ 1
isolate (source animal id): 276	≤ 1
isolate (source animal id): 278	2 (≈ 2.72 µM)
isolate (source animal id): 280	≤ 1
isolate (source animal id): 281	4 (≈ 5.45 µM)
isolate (source animal id): 283	2 (≈ 2.72 µM)
isolate (source animal id): 288	4 (≈ 5.45 µM)
isolate (source animal id): 291	2 (≈ 2.72 µM)
isolate (source animal id): 292	4 (≈ 5.45 µM)
isolate (source animal id): 296	2 (≈ 2.72 µM)
isolate (source animal id): 306	8 (≈ 10.9 µM)
isolate (source animal id): 336	8 (≈ 10.9 µM)
isolate (source animal id): 337	8 (≈ 10.9 µM)
isolate (source animal id): 341	4 (≈ 5.45 µM)

CC1(C)S[C@@H]2[C@H](NC(=O)Cc3ccccc3)C(=O)N2[C@H]1C(=O)O [Penicillin]
Conditions	minimum inhibitory concentration [µg/mL]
isolate (source animal id): 3	≤ 0.12
isolate (source animal id): 4	≤ 0.12
isolate (source animal id): 7	≤ 0.12
isolate (source animal id): 14	≤ 0.12
isolate (source animal id): 15	0.25 (≈ 0.748 µM)
isolate (source animal id): 17	≤ 0.12
isolate (source animal id): 18	≤ 0.12
isolate (source animal id): 20	≤ 0.12
isolate (source animal id): 23	≤ 0.12
isolate (source animal id): 45	≤ 0.12
isolate (source animal id): 53	≤ 0.12
isolate (source animal id): 83	≤ 0.12
isolate (source animal id): 88	≤ 0.12
isolate (source animal id): 92	≤ 0.12
isolate (source animal id): 93	≤ 0.12
isolate (source animal id): 99	≤ 0.12
isolate (source animal id): 100	≤ 0.12
isolate (source animal id): 105	≤ 0.12
isolate (source animal id): 107	≤ 0.12
isolate (source animal id): 108	≤ 0.12
isolate (source animal id): 109	≤ 0.12
isolate (source animal id): 110	≤ 0.12
isolate (source animal id): 117	≤ 0.12
isolate (source animal id): 121	≤ 0.12
isolate (source animal id): 123	≤ 0.12
isolate (source animal id): 124	≤ 0.12
isolate (source animal id): 127	≤ 0.12
isolate (source animal id): 128	≤ 0.12
isolate (source animal id): 130	≤ 0.12
isolate (source animal id): 132	≤ 0.12
isolate (source animal id): 135	≤ 0.12
isolate (source animal id): 140	≤ 0.12
isolate (source animal id): 141	≤ 0.12
isolate (source animal id): 142	≤ 0.12
isolate (source animal id): 144	≤ 0.12
isolate (source animal id): 146	≤ 0.12
isolate (source animal id): 147	≤ 0.12
isolate (source animal id): 151	≤ 0.12
isolate (source animal id): 153	≤ 0.12
isolate (source animal id): 154	≤ 0.12
isolate (source animal id): 156	≤ 0.12
isolate (source animal id): 157	≤ 0.12
isolate (source animal id): 176	≤ 0.12
isolate (source animal id): 183	≤ 0.12
isolate (source animal id): 186	≤ 0.12
isolate (source animal id): 196	≤ 0.12
isolate (source animal id): 198	≤ 0.12
isolate (source animal id): 200	≤ 0.12
isolate (source animal id): 206	≤ 0.12
isolate (source animal id): 208	≤ 0.12
isolate (source animal id): 210	≤ 0.12
isolate (source animal id): 212	≤ 0.12
isolate (source animal id): 215	≤ 0.12
isolate (source animal id): 216	≤ 0.12
isolate (source animal id): 218	≤ 0.12
isolate (source animal id): 219	≤ 0.12
isolate (source animal id): 224	≤ 0.12
isolate (source animal id): 228	≤ 0.12
isolate (source animal id): 230	≤ 0.12
isolate (source animal id): 233	≤ 0.12
isolate (source animal id): 238	≤ 0.12
isolate (source animal id): 239	≤ 0.12
isolate (source animal id): 241	≤ 0.12
isolate (source animal id): 242	≤ 0.12
isolate (source animal id): 243	≤ 0.12
isolate (source animal id): 245	0.25 (≈ 0.748 µM)
isolate (source animal id): 246	≤ 0.12
isolate (source animal id): 247	≤ 0.12
isolate (source animal id): 248	≤ 0.12
isolate (source animal id): 250	≤ 0.12
isolate (source animal id): 251	≤ 0.12
isolate (source animal id): 252	≤ 0.12
isolate (source animal id): 254	0.25 (≈ 0.748 µM)
isolate (source animal id): 258	≤ 0.12
isolate (source animal id): 259	≤ 0.12
isolate (source animal id): 262	≤ 0.12
isolate (source animal id): 264	≤ 0.12
isolate (source animal id): 265	8 (≈ 23.9 µM)
isolate (source animal id): 266	≤ 0.12
isolate (source animal id): 267	≤ 0.12
isolate (source animal id): 269	≤ 0.12
isolate (source animal id): 271	≤ 0.12
isolate (source animal id): 272	8 (≈ 23.9 µM)
isolate (source animal id): 274	≤ 0.12
isolate (source animal id): 276	≤ 0.12
isolate (source animal id): 278	≤ 0.12
isolate (source animal id): 280	0.5 (≈ 1.5 µM)
isolate (source animal id): 281	≤ 0.12
isolate (source animal id): 283	0.25 (≈ 0.748 µM)
isolate (source animal id): 288	≤ 0.12
isolate (source animal id): 291	≤ 0.12
isolate (source animal id): 292	≤ 0.12
isolate (source animal id): 296	≤ 0.12
isolate (source animal id): 306	≤ 0.12
isolate (source animal id): 336	≤ 0.12
isolate (source animal id): 337	≤ 0.12
isolate (source animal id): 341	≤ 0.12

Source: the supplement of paper PMC8612539
